Data from US9464056B2, “Fungicidal 4-methylanilino pyrazoles” (E. I. DU PONT DE NEMOURS AND COMPANY, priority 2012, dated 2016).

Key:
[1] = tested on: Botrytis cinerea; assay: Test A: preventive spray on tomato seedlings, Botrytis cinerea (tomato Botrytis), visual disease rating; format: in vivo; details: 100 = 100% disease control, 0 = no disease control relative to controls
Text: General protocol for preparing test suspensions for Tests A-H: the test compounds were first dissolved in acetone in an amount equal to 3% of the final volume and then suspended at the desired concentration (in ppm) in acetone and purified water (50/50 mix by volume) containing 250 ppm of the surfactant Trem® 014 (polyhydric alcohol esters). The resulting test suspensions were then used in Tests A-F. Spraying a 40 ppm test suspension to the point of run-off on the test plants was the equivalent of a rate of 160 g/ha. Unless otherwise indicated, the rating values indicate a 40 ppm test suspension was used. The test suspension was sprayed to the point of run-off on tomato seedlings. The following day the seedlings were inoculated with a spore suspension of Botrytis cinerea (the causal agent of tomato Botrytis) and incubated in saturated atmosphere at 20° C. for 48 h, and then moved to a growth chamber at 27° C. for 3 days, after which time visual disease ratings were made. Results for Tests A-F are given in Table A. In the Table, a rating of 100 indicates 100% disease control and a rating of 0 indicates no disease control (relative to the controls). A dash (-) indicates no test results.

[2] = tested on: Septoria nodorum; assay: Test C: preventive spray on wheat seedlings, Septoria nodorum (Septoria glume blotch), visual disease rating; format: in vivo; details: Parastagonospora nodorum, topical, 264 h, 100 = 100% disease control, 0 = no disease control relative to controls
Text: General protocol for preparing test suspensions for Tests A-H: the test compounds were first dissolved in acetone in an amount equal to 3% of the final volume and then suspended at the desired concentration (in ppm) in acetone and purified water (50/50 mix by volume) containing 250 ppm of the surfactant Trem® 014 (polyhydric alcohol esters). The resulting test suspensions were then used in Tests A-F. Spraying a 40 ppm test suspension to the point of run-off on the test plants was the equivalent of a rate of 160 g/ha. Unless otherwise indicated, the rating values indicate a 40 ppm test suspension was used. The test suspension was sprayed to the point of run-off on wheat seedlings. The following day the seedlings were inoculated with a spore suspension of Septoria nodorum (the causal agent of Septoria glume blotch) and incubated in a saturated atmosphere at 20° C. for 48 h, and then moved to a growth chamber at 20° C. for 9 days, after which time visual disease ratings were made. Results for Tests A-F are given in Table A. In the Table, a rating of 100 indicates 100% disease control and a rating of 0 indicates no disease control (relative to the controls). A dash (-) indicates no test results.

[3] = tested on: Septoria tritici; assay: Test D: preventive spray on wheat seedlings, Septoria tritici (wheat leaf blotch), visual disease rating; format: in vivo; details: Zymoseptoria tritici, topical, 504 h, 100 = 100% disease control, 0 = no disease control relative to controls
Text: General protocol for preparing test suspensions for Tests A-H: the test compounds were first dissolved in acetone in an amount equal to 3% of the final volume and then suspended at the desired concentration (in ppm) in acetone and purified water (50/50 mix by volume) containing 250 ppm of the surfactant Trem® 014 (polyhydric alcohol esters). The resulting test suspensions were then used in Tests A-F. Spraying a 40 ppm test suspension to the point of run-off on the test plants was the equivalent of a rate of 160 g/ha. Unless otherwise indicated, the rating values indicate a 40 ppm test suspension was used. The test suspension was sprayed to the point of run-off on wheat seedlings. The following day the seedlings were inoculated with a spore suspension of Septoria tritici (the causal agent of wheat leaf blotch) and incubated in saturated atmosphere at 24° C. for 48 h, and then moved to a growth chamber at 20° C. for 19 days, after which time visual disease ratings were made. Results for Tests A-F are given in Table A. In the Table, a rating of 100 indicates 100% disease control and a rating of 0 indicates no disease control (relative to the controls). A dash (-) indicates no test results.

[4] = tested on: Puccinia recondita f. sp. tritici; assay: Test E2: preventive spray on wheat seedlings, Puccinia recondita f. sp. tritici (wheat leaf rust), visual disease rating; format: in vivo; details: topical, 192 h, 100 = 100% disease control, 0 = no disease control relative to controls
Text: (§1) General protocol for preparing test suspensions for Tests A-H: the test compounds were first dissolved in acetone in an amount equal to 3% of the final volume and then suspended at the desired concentration (in ppm) in acetone and purified water (50/50 mix by volume) containing 250 ppm of the surfactant Trem® 014 (polyhydric alcohol esters). The resulting test suspensions were then used in Tests A-F. Spraying a 40 ppm test suspension to the point of run-off on the test plants was the equivalent of a rate of 160 g/ha. Unless otherwise indicated, the rating values indicate a 40 ppm test suspension was used. The test suspension was sprayed to the point of run-off on wheat seedlings. The following day the seedlings were inoculated with a spore suspension of Puccinia recondita f. sp. tritici (the causal agent of wheat leaf rust) and incubated in a saturated atmosphere at 20° C. for 24 h, and then moved to a growth chamber at 20° C. for 7 days, after which time visual disease ratings were made. Results for Tests A-F are given in Table A. In the Table, a rating of 100 indicates 100% disease control and a rating of 0 indicates no disease control (relative to the controls). A dash (-) indicates no test results.

[5] = tested on: Blumeria graminis f. sp. tritici; assay: Test F: preventive spray on wheat seedlings, Blumeria graminis f. sp. tritici (wheat powdery mildew), visual disease rating; format: in vivo; details: topical, 192 h, 100 = 100% disease control, 0 = no disease control relative to controls
Text: as §1, with “spore dust” for “spore suspension”, “of Blumeria graminis” for “of Puccinia recondita”, “tritici (also known as Erysiphe graminis f. sp. tritici, the” for “tritici (the”, “wheat powdery mildew)” for “wheat leaf rust)”, “in” for “in a saturated atmosphere at 20° C. for 24 h, and then moved to”, “for 8” for “for 7”

Compound | pest or weed control at 40 µg/mL [1] [%] | pest or weed control at 40 µg/mL [2] [%] | pest or weed control at 40 µg/mL [3] [%] | pest or weed control at 40 µg/mL [4] [%] | pest or weed control at 40 µg/mL [5] [%] | melting point [°C]
Cc1ccc(Nc2c(-c3ccc(F)cc3Cl)c(C)nn2C)c(Cl)c1 [Compound 2, 4-(2-chloro-4-fluorophenyl)-N-(2-chloro-4-methylphenyl)-1,3-dimethyl-1H-pyrazol-5-amine] | 100 | 0 | 100 | 95 | 97 | –
Cc1ccc(Nc2c(-c3ccc(F)cc3Cl)c(C)nn2C)c(Br)c1 [Compound 3, N-(2-bromo-4-methylphenyl)-4-(2-chloro-4-fluorophenyl)-1,3-dimethyl-1H-pyrazol-5-amine] | 99 | 0 | 100 | 99 | 96 | –
Cc1ccc(Nc2c(-c3ccc(F)cc3Br)c(C)nn2C)c(Cl)c1 [Compound 4, 4-(2-bromo-4-fluorophenyl)-N-(2-chloro-4-methylphenyl)-1,3-dimethyl-1H-pyrazol-5-amine] | 100 | 0 | 100 | 97 | 97 | –
Cc1ccc(Nc2c(-c3ccc(F)cc3Br)c(C)nn2C)c(Br)c1 [Compound 5, 4-(2-bromo-4-fluorophenyl)-N-(2-bromo-4-methylphenyl)-1,3-dimethyl-1H-pyrazol-5-amine] | 99 | 0 | 100 | 97 | 97 | –
Cc1ccc(Nc2c(-c3ccc(F)cc3Cl)c(C)nn2C)c(F)c1 [Compound 6, 4-(2-chloro-4-fluorophenyl)-N-(2-fluoro-4-methylphenyl)-1,3-dimethyl-1H-pyrazol-5-amine] | 99 | 0 | 100 | 0 | 100 | –
Cc1cc(F)c(Nc2c(-c3ccc(F)cc3Br)c(C)nn2C)c(Br)c1 [Compound 7, N-(2-bromo-6-fluoro-4-methylphenyl)-4-(2-bromo-4-fluorophenyl)-1,3-dimethyl-1H-pyrazol-5-amine] | 100 | 99 | 100 | 100 | 100 | 143 to 145
Cc1cc(F)c(Nc2c(-c3ccc(F)cc3F)c(C)nn2C)c(Br)c1 [Compound 8, N-(2-bromo-6-fluoro-4-methylphenyl)-4-(2,4-difluorophenyl)-1,3-dimethyl-1H-pyrazol-5-amine] | 100 | 97 | 100 | 100 | 100 | 143 to 144
Cc1cc(F)c(Nc2c(-c3ccc(F)cc3F)c(C)nn2C)c(F)c1 [Compound 9, N-(2,6-difluoro-4-methylphenyl)-4-(2,4-difluorophenyl)-1,3-dimethyl-1H-pyrazol-5-amine] | 100 | 96 | 100 | 96 | 100 | 156 to 158
Cc1cc(F)c(Nc2c(-c3ccc(F)cc3Cl)c(C)nn2C)c(F)c1 [Compound 10, 4-(2-chloro-4-fluorophenyl)-N-(2,6-difluoro-4-methylphenyl)-1,3-dimethyl-1H-pyrazol-5-amine] | 100 | 90 | 100 | 100 | 100 | 121 to 123
Cc1cc(F)c(Nc2c(-c3ccc(F)cc3Br)c(C)nn2C)c(Cl)c1 [Compound 11, 4-(2-bromo-4-fluorophenyl)-N-(2-chloro-6-fluoro-4-methylphenyl)-1,3-dimethyl-1H-pyrazol-5-amine] | – | – | – | – | – | 145 to 146
Cc1cc(F)c(Nc2c(-c3ccc(F)cc3Cl)c(C)nn2C)c(Cl)c1 [Compound 12, N-(2-chloro-6-fluoro-4-methylphenyl)-4-(2-chloro-4-fluorophenyl)-1,3-dimethyl-1H-pyrazol-5-amine] | – | – | – | – | – | 137 to 138
Cc1cc(Cl)c(Nc2c(-c3ccc(F)cc3Cl)c(C)nn2C)c(Cl)c1 [Compound 13, 4-(2-chloro-4-fluorophenyl)-N-(2,6-dichloro-4-methylphenyl)-1,3-dimethyl-1H-pyrazol-5-amine] | 100 | 0 | 100 | 100 | 100 | 188 to 189
Cc1cc(F)c(Nc2c(-c3ccc(F)cc3Br)c(C)nn2C)c(F)c1 [Compound 14, 4-(2-bromo-4-fluorophenyl)-N-(2,6-difluoro-4-methylphenyl)-1,3-dimethyl-1H-pyrazol-5-amine] | 100 | 86 | 100 | 100 | 100 | 114 to 116
Cc1cc(Cl)c(Nc2c(-c3ccc(F)cc3Br)c(C)nn2C)c(Cl)c1 [Compound 15, 4-(2-bromo-4-fluorophenyl)-N-(2,6-dichloro-4-methylphenyl)-1,3-dimethyl-1H-pyrazol-5-amine] | 100 | 0 | 100 | 100 | 99 | 191 to 192
